Patent USH1209H, “No-carrier-added (18F)-N-methylspiroperidol” (The United States of America as represented by the United …, priority 1985, dated 1993)

Assays:
dopamine receptors = experiment: PETT baboon studies: striatum and cerebellum radioactivity after i.v. [^18 F]-N-methylspiroperidol, with (-)- or (+)-butaclamol pretreatment; settings: for effect of butaclamol pretreatment on striatal distribution of [^18 F]-N-methylspiroperidol: 0.5 mg/kg i.v. pretreatment
Description: (§1) A young adult (12 kg) female baboon (Papio anubis) was anesthesized initially with ketamine and subsequently maintained under halothane/nitrous oxide anesthesia for two PETT studies. […] Pett scans were made continually for 4 hrs from the time of radioisotope injection.

dopamine receptor = settings: cited from earlier work; for prevention of striatal retention of [^18 F]spiroperidol and [^18 F]benperidol: prior administration of butaclamol enantiomer; for retention by the striatum compared with [^18 F]haloperidol: region of high dopamine receptor density
[1] = Metabolic stability and uptake in rat brain (striatum, cerebellum); type: in vivo, rat (male BNL R strain); settings: rat brain
[2] = Baboon plasma analyses (total plasma radioactivity clearance and unchanged radioligand); settings: baboon, plasma, plasma radioactivity due to unaltered radioligand, baboon plasma, 10 mins after injection
Description: as §1
Blood was sampled from the femoral artery at initial intervals of 5 secs. Aliquots of plasma were counted to determine the total plasma radioactivity of clearance curves.

Compound | effect of butaclamol pretreatment on striatal distribution of [^18 F]-N-methylspiroperidol (dopamine receptors) | prevention of striatal retention of [^18 F]spiroperidol and [^18 F]benperidol (dopamine receptor) | crossing of the blood brain barrier compared with [^18 F]haloperidol (dopamine receptor; in vivo) | retention by the striatum compared with [^18 F]haloperidol (dopamine receptor) | also measured
CC(C)(C)C1(O)CCN2CC3c4ccccc4CCc4cccc(c43)C2C1 (single isomer, unassigned; (+)) [(+)-butaclamol, reference compound] | stereospecific blocking of dopamine receptors in the striatum | prevented | – | – | –
CC(C)(C)C1(O)CCN2CC3c4ccccc4CCc4cccc(c43)C2C1 (single isomer, unassigned; (-)) [(-)-butaclamol, reference compound] | normal distribution of radioligand | not | – | – | –
O=C(CCCN1CCC(n2c(=O)[nH]c3ccccc32)CC1)c1ccc([18F])cc1 [[^18 F]benperidol] | – | – | to a lesser extent than [^18 F]haloperidol | retained to a greater degree by the striatum | –
O=C(CCCN1CCC2(CC1)C(=O)NCN2c1ccccc1)c1ccc([18F])cc1 [[^18 F]spiroperidol] | – | – | to a lesser extent than [^18 F]haloperidol | retained to a greater degree by the striatum | metabolism in the rat brain [1]: very little metabolism; specifically bound component of radioactivity in the striatum (striatum minus cerebellum) (dopamine receptors; 4 hrs after injection): still increasing at 4 hrs after injection; uptake into the brain (dopamine receptor; baboons): 0.5-1.0 % of the injected dose; clearance from the striatal areas (dopamine receptor; up to 8 hrs. after injection): no clearance; remaining at 10 min [2]: 72%
O=C(CCCN1CCC(O)(c2ccc(Cl)cc2)CC1)c1ccc(F)cc1 [haloperidol] | – | – | – | – | brain uptake compared with spiroperidol or benperidol (dopamine receptor; in vivo): higher than spiroperidol or benperidol; egress from the brain (dopamine receptor; in vivo): rapid egress; nonspecific binding (dopamine receptor; in vivo): relatively high nonspecific binding
